Data from publication PMC8443859 (Journal of Traditional and Complementary Medicine, 2021).
*1 amine or outer side, *2 acyl side, *3 side chain or, on linkers, in order; H or OH if unused. Where a SMILES comes first, the peptide text is derived from it. Bridges are numbered along the chain shown (N, C = ends). Roman numbers before positions name the chains, in order. [ ]: non-standard residue; d: D form. Actinocin(9to1) = Cc1c2oc3c(C)ccc(C(=O)[*:1])c3nc-2c(C(=O)[*:2])c(N)c1=O; NMeV = CN[C@H](C(=O)O)C(C)C; Sar = CNCC(=O)O

Experiments:
measles virus = details: Vero cells; cited from earlier work
[1] = target: S1 domain of SARS-CoV-2 spike protein (Severe acute respiratory syndrome coronavirus 2, UniProt P0DTC2); assay: biochemical; type: binding
[2] = system: lentivirus particles pseudotyped (Vpp) with SARS-CoV-2 Spike protein; assay: organism not typed; type: cell-based; details: for inhibition at 10 µM: HEK-293T, read-out: inhibition of SARS-CoV-2 viral infection efficacy
293T cells = assay: Cell viability, MTT assay; type: cell-based; details: Homo sapiens, HEK-293T, 48 h, read-out: IC50 cell viability
[3] = annotation, ref TDEC website; cited from earlier work
adenovirus = details: 293 cells; cited from earlier work
[4] = system: interaction between viral spike protein and ACE2 protein; details: cited from earlier work

SMILES	inhibition of measles virus replication and RNA synthesis (measles virus)	-TΔS [1] [kcal/mol]	c (c value) [1]	n (reaction stoichiometry) [1]	ΔH [1] [kcal/mol]	Kd [1] [nM]	inhibition at 10 µM [2] [%]	IC50 (293T cells) [nM]	ΔG [1] [kcal/mol]	ΔS [1] [J/mol·K]	inhibition of SARS-CoV-2 viral infection efficacy ([2]; 10 µM)	Water solubility, Solubility category [3]	inhibition of adenovirus infection (adenovirus)	inhibitory activity against spike-ACE2 interaction [4]
Cc1c2oc3c(C)ccc(C(=O)N[C@@H]4C(=O)N[C@H](C(C)C)C(=O)N5CCC[C@H]5C(=O)N(C)CC(=O)N(C)[C@@H](C(C)C)C(=O)O[C@@H]4C)c3nc-2c(C(=O)N[C@@H]2C(=O)N[C@H](C(C)C)C(=O)N3CCC[C@H]3C(=O)N(C)CC(=O)N(C)[C@@H](C(C)C)C(=O)O[C@@H]2C)c(N)c1=O [Actinomycin D] (I: T[dV]P[Sar][NMeV] / II: T[dV]P[Sar][NMeV]; ester I:1-I:C, II:1-II:C; linker I:N-II:N via Actinocin(9to1))	inhibit measles virus replication and RNA synthesis	–	–	–	–	–	–	–	–	–	–	–	–	–
O=c1cc(-c2ccc(O)c(-c3c(O)cc(O)c4c(=O)cc(-c5ccc(O)cc5)oc34)c2)oc2cc(O)cc(O)c12 [Amentoflavone]	–	12.3	6.4	2.731	-19.63	4270	50 to 90	> 100000	–	–	–	–	–	–
O=C1/C(=c2\c3ccccc3n3c(=O)c4ccccc4nc23)Nc2ccccc21 [Candidine]	–	17.35	–	0.115	-23.9	15700	–	–	-6.554	−243.4	–	–	–	–
CC1=C(O)C(=O)C=C2C1=CC=C1[C@@]2(C)CC[C@@]2(C)[C@@H]3C[C@](C)(C(=O)O)CC[C@]3(C)CC[C@]12C [Celastrol]	–	-47.59	8.2	1.409	39.72	1710	50 to 90	987	-7.868	667.9	–	–	–	–
O=C1C(C2(C3(C4=Nc5ccccc5C4=O)Nc4ccccc4C3=O)Nc3ccccc3C2=O)=Nc2ccccc21 (stereo not shown) [Cephalinone D]	–	-2.383	0.8	0.333	–	–	–	–	–	33.45	–	–	–	–
C[C@@H]1CC[C@@]2(OC1)O[C@H]1C[C@H]3[C@@H]4CC=C5C[C@@H](O[C@@H]6O[C@H](CO)[C@@H](O[C@@H]7O[C@@H](C)[C@H](O)[C@@H](O)[C@H]7O)[C@H](O)[C@H]6O[C@@H]6O[C@@H](C)[C@H](O)[C@@H](O)[C@H]6O)CC[C@]5(C)[C@H]4CC[C@]3(C)[C@H]1[C@@H]2C [Dioscin]	–	–	117.3	5.488	–	468	–	1560	-8.635	110.6	more than 80%	Moderate	inhibit the initial stage of adenovirus infection	–
CC1(C)[C@@H](O[C@H]2O[C@H](C(=O)O)[C@@H](O)[C@H](O)[C@H]2O[C@@H]2O[C@H](C(=O)O)[C@@H](O)[C@H](O)[C@H]2O)CC[C@]2(C)[C@H]3C(=O)C=C4[C@@H]5C[C@@](C)(C(=O)O)CC[C@]5(C)CC[C@@]4(C)[C@]3(C)CC[C@@H]12 [Glycyrrhizic acid]	–	–	–	–	–	–	–	–	–	–	–	–	–	inhibitory activity against the interaction between viral spike protein and ACE2 protein
